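Step 1: Grow cells in 96-well plates. Step 2: Expose to compound for 48 hours at 5 concentrations. Step 3: Interpolate endpoints linearly; if unreached, use highest concentration. TGI denotes the concentration required for complete inhibition of growth.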
Assays:
Test in all cases: DTP human tumour cell line panel, 48 h
HOP-92 NSCLC = system: HOP-92 NSCLC
NCI-H23 lung = system: NCI-H23 lung
SW-620 colon = system: SW-620 colon
SK-OV-3 ovarian = system: SK-OV-3 ovarian
TK-10 renal = system: TK-10 renal
BT-549 breast = system: BT-549 breast
RPMI-8226 leukemia = system: RPMI-8226 leukemia
COLO 205 colon = system: COLO 205 colon
ACHN renal = system: ACHN renal
OVCAR-8 ovarian = system: OVCAR-8 ovarian

| Compound | TGI (HOP-92 NSCLC) [µM] | TGI (NCI-H23 lung) [µM] | TGI (SW-620 colon) [µM] | TGI (SK-OV-3 ovarian) [µM] | TGI (TK-10 renal) [µM] | TGI (BT-549 breast) [µM] | TGI (RPMI-8226 leukemia) [µM] | TGI (COLO 205 colon) [µM] | TGI (ACHN renal) [µM] | TGI (OVCAR-8 ovarian) [µM] |
| --- | --- | --- | --- | --- | --- | --- | --- | --- | --- | --- |
| O=[N+]([O-])c1ccc(-n2nc3ccc4nonc4c3n2)cc1 | 65 | > 100 | > 100 | 56.5 | 39.9 | 63.7 | > 100 | > 100 | > 100 |  |
| CC(C)CCCC(C)[C@H]1CCC(C2C[C@@H](O)[C@@H]3CC(O)[C@@H](O)C[C@]3(CO)C2=O)[C@]1(C)CCO (stereo partly drawn) |  | > 90.5 | 52.7 | 67.1 |  |  | > 100 | 35 |  | > 76.1 |
| O=c1[nH]c(=O)n(COC(CO)CO)cc1-c1ccccc1 | > 100 | > 100 | > 100 | > 100 | > 100 |  | > 100 | > 100 | > 100 | > 100 |
| CCOC(=O)c1c(-c2ccc(OC)cc2)ccn1C | > 10 | > 10 | > 10 | > 10 | > 10 | > 10 |  | > 10 | > 10 | > 10 |
| CC1=NN(C(=O)CC(=O)Nc2cccc(C)c2)C(=O)C1N=Nc1ccc(S(=O)(=O)CCOS(=O)(=O)O)cc1 (stereo not drawn) | 17.9 | 24.6 | 14.5 | 17 | 26.2 |  | > 100 | 8.42 | 17.1 | > 22.4 |
| CCOP(=O)(/C=C/n1cc(C)c(=O)[nH]c1=O)OCC |  | > 100 | > 100 | > 100 | > 100 | > 100 | > 100 | > 100 | > 100 | > 100 |
| CC1=C(C)C(=O)C(C2=CC(=O)c3ccccc3C2=O)=C(C2=CC(=O)c3ccccc3C2=O)C1=O | > 83.3 | 45.5 | > 33.9 | 45.8 | > 38.4 | 48.1 |  | 9.77 | 14.9 | > 62.3 |
| CCOc1ccc2nc(NC(=O)C(=O)C(C(=O)c3ccccc3F)C3OC(=O)c4ccccc43)sc2c1 (stereo not drawn) |  |  | 37.5 | 55.1 | 90.7 |  | 90 | 30.4 | > 100 | 32.8 |
| N#Cc1c(NC(=S)Nc2ccc(Cl)cc2)sc2c1CCN(N1CCc3c(sc(NC(=S)Nc4ccc(Cl)cc4)c3C#N)C1)C2 |  | > 100 | > 100 | > 100 | > 100 | > 100 | > 100 | 33.4 | > 100 | 88.5 |
| N#CCCC(C=O)(CCC#N)CCC#N | > 100 | > 100 | > 100 | > 100 | > 100 | > 100 |  | > 100 | > 100 | > 100 |
| C/C(=C1\N=C(c2ccccc2)OC1=O)c1ccccc1 | > 100 | > 100 | > 100 | > 100 | > 100 |  | > 100 | > 100 | > 100 | > 100 |
| C/C(=N\Nc1nc2ccccc2s1)c1ccncn1 | > 30.1 | 5.55 | > 100 | > 32.1 |  | 21.4 | > 26 | 11.1 | 11.8 | 1.03 |

Reference: PubChem BioAssay (NCI)
